The MIC is the least concentration at which growth counts as inhibited. A higher MIC goes with a need for much substance.

One series has as its system E.coli ATCC 25922. Format: cell-based, Escherichia coli. The conditions noted are these: ATCC 25922, 18 h. The procedure: (§1) The bacterial strains used were Escherichia coli ATCC 25922, Staphylococcus aureus ATCC 25923, Klebsiella pneumoniae ATCC 700603, Acinetobacter baumannii ATCC 19606, Pseudomonas aeruginosa ATCC 27853 and Staphylococcus epidermidis ATCC 12228. The reference bacterial strains used were purchased from American Type Culture Collection (ATCC) (Manassas, Virginia, USA). They were grown overnight (o/n) at 37 °C in complete Müller-Hinton broth (MHB, Difco) medium with shaking (130 rpm). The day after, the overnight bacterial cultures were diluted in fresh MHB (300 μL o/n culture in 10 mL) and incubated at 37 °C with shaking (130 rpm) for approximately 2 h (mid-log phase) until reaching an optical density (OD) at 600 nm (OD600) ≈ 0.3.
(§2) Peptides diluted in MHB to a concentration of 128 μM were added to the first column of wells of a 96-well round-bottom microtiter plate (Sarstedt, Milan, Italy) and serially diluted (1:2) in a final volume of 50 μL MHB was added to the next wells. Then, a mid-log bacterial cultures (OD 600≈ 0.3) were diluted to 5 × 10^5 colony-forming units (CFU)/mL in MHB and 50 μL of this bacterial suspension was added to each well. In this way, the final bacterial concentration was reduced to 2.5 × 10^5 CFU/mL and the peptide concentration in the wells was also halved in a final volume of 100 μL (final bacteria load was 2.5 × 10^4 CFU/well). The same amount of untreated bacteria in MHB was used as a control for bacterial growth. […] MIC was determined by visual inspection at the end of incubation as the first clear well. Data are reported as moda of independent experiments repeated three times or four times in case of uncertain values.

Another series has as its system K.pneumoniae ATCC 700603. It is filed as cell-based, Klebsiella pneumoniae. The conditions noted are these: ATCC 700603, 18 h. The procedure: as §1, §2
The next series relates to S.aureus ATCC 25923. It is filed as cell-based, Staphylococcus aureus. The protocol:
as §1, §2

The subject of another series is P.aeruginosa ATCC 27853. It is filed as cell-based, Pseudomonas aeruginosa. As to conditions: ATCC 27853, 18 h. The procedure: as §1, §2
Another series relates to HaCaT cell line. As to conditions: 24 h.
The test system of a further series is T1, chymotrypsin.
T1 construct: purchased Sigma-Aldrich
The series is described as follows: Proteolytic stability with chymotrypsin. As to conditions: chymotrypsin (isolated enzyme) in buffer, after 90 min, Tris·HCl 50 mM pH 7.8, 37 °C; for remaining at 1.5 h, 0.625 mg/mL: 0.125 mg peptide, 1.25 µg enzyme, HPLC peak area (HPLC–MS), triplicates, read-out: percentage of intact peptide with chymotrypsin. Format: in vitro ADME. The procedure:
The stability of the peptides in the presence of chymotrypsin was monitored by HPLC–MS, analysing the fragments derived from the degradation of the peptide. All 20-mer analogues (a–f) are sensitive to chymotrypsin. The rate of peptide degradation was calculated as the percentage of intact peptide detected at defined time points. All peptides were mostly degraded within the first 15 min of incubation, with the exception of the lipopeptide e and the short peptide h. […] For peptide h, which was designed with an Aib residue to improve proteolytic resistance, 50% of the peptide was still intact after 90 min (Fig. 5A). The other peptides were cleaved on the C-terminal side of Leu21 or Trp23 as the first cleavage observed. Successive degradations involve Leu14 for all peptides (with the exception of a and h). Concerning 13-mer peptides (g and h), degradation at position 21 occurred only for g and not for the Aib containing peptide h, for which Leu14 is the sensitive point for chymotrypsin attack.
All the degradation experiments were executed in triplicates.

For series [1] the following is noted: 4h and 24 h incubation, different concentrations.
Another series deals with A.baumanni ATCC 19606. It is filed as cell-based, Acinetobacter baumannii. The conditions noted are these: ATCC 19606, 18 h. The procedure:
as §1, §2

The next series relates to S.epidermidis ATCC 12228. Format: cell-based, Staphylococcus epidermidis. As to conditions: ATCC 12228, 18 h. The protocol:
as §1, §2

The test system of series [2] is ram red blood cells (RBCs). The conditions noted are these: 4% v/v ram RBCs in PBS, 1 h, 37 °C, absorbance 540 nm, 100% = 1% Triton X-100; all concentrations tested; n = 3. The procedure:
The lytic potential towards eukaryotic cell membranes was assessed by measuring the release of haemoglobin from commercial ram red blood cells (RBCs) (Microbiol s.r.l., Cagliari, Italy) after exposure to the peptides. First, erythrocytes were isolated by centrifugation, washed with PBS and then suspended at 8% (v/v) in PBS. Secondly, 100 µL erythrocytes suspension was added into each well of a 96-well microplate. Then, 100 µL peptide solution was added to each well at different concentrations (the final concentration of erythrocytes suspension was 4% v/v), and the plates were incubated for 1 h at 37 °C and centrifuged at 1000 g for 10 min. Finally, 100 µL aliquots of supernatant were transferred to fresh 96-well microplate, and the release of haemoglobin was monitored by measuring the absorbance at 540 nm with Tecan microplate reader (Tecan Trading AG, Switzerland). 0% and 100% haemolysis were determined in PBS and 1% Triton X-100, respectively.

Series [3] can be described thus: Hydrophobicity by RP-HPLC retention time. It is filed as physicochemical. As to conditions: for Retention time tR: used as measure of hydrophobicity, RP-HPLC, Phenomenex Luna C18 (100 Å, 5µ), linear gradient 5%B to 95%B over 30 min, A 0.1% TFA in 9:1 water:acetonitrile, B 0.1% TFA in 9:1 acetonitrile:water, 1 mL/min, peptide 0.5 mg/mL in MeOH, UV 215 and 280 nm. The protocol:
Peptide hydrophobicity was calculated as difference in retention times between peptide analogues b–h and peptide a. Each peptide was dissolved in MeOH to a concentration of 0.5 mg/mL and then subjected to RP-HPLC on an analytical Phenomenex Luna C18 (100 Å, 5µ) column using 0.1% TFA in 9:1 water:acetonitrile as solvent A, and 0.1% TFA in 9:1 acetonitrile:water as solvent B. The peptides were eluted using a linear gradient as follows: 5%B to 95%B over 30 min. The flow rate was 1 mL/min and the absorbance was measured at 215 nm and 280 nm. The retention time was recorded for each peptide.

Series [4] deals with E. coli, A. baumannii, K. pneumoniae, P. aeruginosa, and S. epidermidis strains. Format: cell-based. As to conditions: 18 h. The procedure:
as §1, §2

The conditions of series [5]: human serum, 37 °C, preliminary. The procedure: The proteolytic stability of synthetic peptides was assessed using chymotrypsin (Sigma–Aldrich) and human serum (Sigma–Aldrich)[46]. The peptide (0.125 mg) was dissolved in the minimum amount (5 µl) of DMSO (dimethylsulfoxide) and then diluted (final volume: 50 µl) with Tris·HCl 50 mM, pH 7.8. Then, it was incubated with and without the enzyme solution (1.25 µg of enzyme in 150 µl buffer) at 37 °C for 24 h. After the workup procedures, the samples were analysed by RP-HPLC as described in the ‘peptide synthesis and characterization’ experimental section. A peptide not resistant to chymotripsin was used as a positive test. As a control, we used the 128-137 C-terminal portion of natural Endonuclease V. The peptide sequence is as follows: […]. All the degradation experiments were executed in triplicates.
Figure S10. […] The bars indicate the final time when the HPLC-MS signal of the peptides is still detectable in solution.

Series [6] in a line: Circular dichroism, helicity. Format: physicochemical. As to conditions: CD in TFE; taken as suggesting aggregation (coiled-coil). The procedure: The secondary structure of the peptides was investigated by circular dichroism (CD) spectroscopy in various environments, including 0.2 mM potassium-phosphate buffer (aqueous solution, pH 7), 100 mM sodium dodecyl sulphate (SDS), and 2,2,2-trifluoroethanol (TFE). As these peptides are active on membranes, we chose SDS, as SDS micelles represent a model mimicking the prokaryotic cell membrane. TFE, on the other hand, is a solvent that induces the formation of helical structures.
The electronic CD curves in the far-UV region (below 260 nm) were obtained on a Jasco (Tokyo, Japan) model J-1500 spectropolarimeter with a fused quartz cell of 0.02 cm pathlength (Hellma, Mühlheim, Germany). The values are expressed in terms of [θ]R, the molar ellipticity per residue (deg × cm^2/dmol). Spectra were recorded at room temperature in water, in spectrograde TFE (99.9% Acros Organics, Geel, Belgium) and 100 mM SDS solution at 3 × 10^−4 M peptide concentration. The final molar peptide-to-lipid ratio is 1:300.
Background: CD spectra are sensitive to the conformation of chiral molecules.

[7] abbreviates: S.aureus ATCC 25923, Mueller–Hinton broth, 18 h, 37 °C, 2.5 × 10^5 CFU/mL, visual, mode of three independent tests.

Converted amounts (≈) assume the structure as drawn. Read-outs that look alike come from different tables or passages of the source. Square brackets hold non-standard residues; d marks the D form. Peptide text beside a SMILES is read from it. * marks the point of attachment. Palmitoyl = CCCCCCCCCCCCCCCC(=O)*; Aib = CC(C)(N)C(=O)O Where only a bound is given, the exact number is not on record here.

Procedure for HaCaT cell line: Cytotoxicity was measured by the MTT assay on human immortalized epidermal keratinocyte HaCaT cell line (DKFZ, Eppelheim, Germany). The HaCaT cells were grown in high-glucose Dulbecco’s modified Eagle’s medium (DMEM) (Sigma-Aldrich, Milan, Italy). DMEM medium was supplemented with 10% foetal bovine serum (FBS; Sigma, Milan, Italy), 2 mM glutamine (Sigma, Milan, Italy), 100 U/mL penicillin (Sigma, Milan, Italy) and 100 µg/mL streptomycin (Sigma, Milan, Italy). The cells were maintained at 37 °C in the presence of 5% CO2 and in a humidified incubator.
Cells were counted in a Burker-Türk chamber to prepare a suspension of 2 × 10^5 cells/ml in DMEM High Glucose Complete Medium (Sigma-Aldrich, Milan, Italy). 100 μL of this suspension was added to the wells of a 96-well flat-bottom transparent microtiter plate (Euroclone, Milan, Italy) specially treated for tissue culture. The plate was incubated for 24 h at 37 °C and 5% CO2 to allow the cells in each well to reach a semiconfluent state. The following day, serial dilutions (1:2) of the peptides, starting with 64 μM, were prepared in DMEM medium, and 100 μL of these solutions were used to replace the medium in the plate with HaCaT cells. The same amount of untreated DMEM high-glucose medium was used as a cell growth control. DMEM high-glucose complete medium (100 μL) was used as a negative control to check the sterility of the medium. The plate was sealed with Parafilm to minimize evaporation and incubated at 37 °C and 5% CO2 for 20 h. Then, 25 μL MTT (Sigma-Aldrich, Milan, Italy) dissolved in phosphate-buffered saline (PBS) was added to each well to a final concentration of 1 mg/mL MTT, and the plate was incubated for 4 h in the dark at 37 °C and 5% CO2.
At the end of incubation, 100 μL 10% (w/v) Igepal (Sigma-Aldrich, Milan, Italy) in 10 mM HCl was added to each well, and the plate was incubated overnight in the dark at 37 °C and 5% CO2. The absorbance of MTT at 570 nm was measured using a Nanoquant Infinite-M200Pro plate reader (Tecan, Männedorf, Switzerland). Student’s t-test was performed for all samples.

Consider `CCCCCCCCCCCCCCCC(=O)N[C@@H](CCCCN)C(=O)N[C@@H](CCCNC(=N)N)C(=O)N[C@@H](CC(C)C)C(=O)N[C@@H](CCCCN)C(=O)N[C@@H](CCCCN)C(=O)N[C@H](C(=O)NCC(=O)N[C@@H](CCCCN)C(=O)N[C@H](C(=O)N[C@@H](CC(C)C)C(=O)N[C@@H](CCCCN)C(=O)N[C@@H](Cc1c[nH]c2ccccc12)C(=O)N[C@H](C(=O)N[C@@H](C)C(=O)N[C@@H](CCCCN)C(=O)N[C@H](C(=O)N[C@H](C(=O)NCC(=O)N[C@@H](CO)C(=O)N[C@H](C(N)=O)[C@@H](C)CC)C(C)C)[C@@H](C)CC)[C@@H](C)CC)C(C)C)[C@@H](C)CC` [e] (Palmitoyl-KRLKKIGKVLKWIAKIVGSI-NH2), for which the minimal inhibitory concentration (MIC) against E.coli ATCC 25922 was over 32 µM; against K.pneumoniae ATCC 700603, over 32 µM; in the series on S.aureus ATCC 25923 (ATCC 25923, 18 h) it was over 32 µM; against P.aeruginosa ATCC 27853 it was over 32 µM; in the series with A.baumanni ATCC 19606, over 32 µM; in the series with S.epidermidis ATCC 12228, over 32 µM. Besides, the “HC50 (cytotoxicity on HaCaT cells)” value in the series with HaCaT cell line was under 32 µM. Moreover, the remaining at 1.5 h, 0.625 mg/mL with chymotrypsin was 65%. The metabolised at 1.5 h, 0.625 mg/mL with chymotrypsin (HPLC, read-out: percentage of peptide degraded by chymotrypsin) was under 50%. Also, in series [1], the “solubility in Müller-Hinton broth” value was “low solubility”. Besides, in series [2], the “membranolytic (haemolytic) effect on erythrocytes” value (from here on “membranolytic (haemolytic) effect”) was “significant lytic effect”.

Ac-KRLKKIGKVLKWI-NH2 [g]: the MIC was 4 µM with E.coli ATCC 25922; 8 µM against K.pneumoniae ATCC 700603; over 64 µM in the series with S.aureus ATCC 25923 (ATCC 25923, 18 h); over 64 µM in the series with S.aureus ATCC 25923 (setting [7]); 8 µM with P.aeruginosa ATCC 27853; 2 µM in the series on A.baumanni ATCC 19606. In the series on S.epidermidis ATCC 12228, this molecule came in with an MIC of 4 µM. For the same molecule, the “Retention time tR” value in series [3] stood at 12.1 min. For the same molecule, the “MIC, span over all tested bacterial strains except S. aureus” value in series [4] is 2 to 8 µM. In series [5] (HPLC-MS), the “proteolytic degradation in serum” value was “rapidly degraded”.

Consider Ac-KRLKKIGKVLKWIAKIVGSI-NH2 [b], for which the MIC in the series on E.coli ATCC 25922 was determined as 4 µM; against K.pneumoniae ATCC 700603, 8 µM; with S.aureus ATCC 25923 (setting [7]) it was 4 µM; against P.aeruginosa ATCC 27853, 16 µM; against A.baumanni ATCC 19606 it was 2 µM; in the series on S.epidermidis ATCC 12228, 4 µM. The “Retention time tR” value in series [3] is recorded as 17.2 min. Also, the “Hydrophobicity ΔtR” value in series [3] (ΔtR = tR(x)−tR(a), relative to compound a, RP-HPLC C18, 5%–95%B over 30 min) is recorded as 4.0. In addition, the “ratio between molar ellipticities at 222 and 208 nm” value in series [6] is listed as over 1. Besides, in series [2], the “membranolytic (haemolytic) effect” value is recorded as “significant lytic effect”.

As to `CC[C@H](C)[C@H](NC(=O)[C@H](Cc1c[nH]c2ccccc12)NC(=O)[C@H](CCCCN)NC(=O)C(C)(C)NC(=O)[C@@H](NC(=O)[C@H](CCCCN)NC(=O)CNC(=O)[C@@H](NC(=O)[C@H](CCCCN)NC(=O)[C@H](CCCCN)NC(=O)[C@H](CC(C)C)NC(=O)[C@H](CCCNC(=N)N)NC(=O)[C@H](CCCCN)NC(C)=O)[C@@H](C)CC)C(C)C)C(N)=O` [h] (Ac-KRLKKIGKV[Aib]KWI-NH2), the MIC was 4 µM (≈ 6.49 µg/mL) in the series on E.coli ATCC 25922; 8 µM (≈ 13 µg/mL) against K.pneumoniae ATCC 700603; over 64 µM with S.aureus ATCC 25923 (ATCC 25923, 18 h); over 64 µM in the series with S.aureus ATCC 25923 (setting [7]); 8 µM (≈ 13 µg/mL) in the series on P.aeruginosa ATCC 27853; 2 µM (≈ 3.25 µg/mL) in the series on A.baumanni ATCC 19606. The molecule further had an MIC with S.epidermidis ATCC 12228 of 8 µM (≈ 13 µg/mL). Moreover, in series [3], the “Retention time tR” value was 11.7 min. In addition, in [4], the “MIC, span over all tested bacterial strains except S. aureus” value lay within 2 to 8 µM. For the same molecule, the remaining at 1.5 h, 0.625 mg/mL in the series on chymotrypsin is 50%. Moreover, in series [2], the “membranolytic (haemolytic) effect” value is “no membranolytic effect”. The “time peptide withstands proteolytic degradation in serum (HPLC-MS signal still detectable)” value in series [5] is listed as “up to 180 min”.

Values taken from paper PMC10499915 (Scientific Reports, 2023).
